Results: publication PMC7835349 (Communications Biology, 2021)
Several values for one entry are separate records, joined by “and”; a condition that tells them apart may be missing. Equal entries are not always repeated.

Key:
Type in all cases: in vivo, C.B-17 SCID mouse
[1] = Tumour pharmacokinetics (released and total AZD4320) in RS4;11 tumours
Source text: For tumour measurements, tumours were harvested, split into smaller pieces and snap frozen in liquid nitrogen. Frozen tumour samples were subsequently weighed and then homogenised for both ‘released’ and ‘total’ AZD4320. For ‘released’ AZD4320, samples were homogenised on ice with an equal volume (w/v) of blank plasma containing 0.2 M citric acid. The samples were then processed according to the aforementioned plasma approach. For ‘total’ AZD4320, samples were homogenised with an equal volume of plasma (w/v) and then processed according to the aforementioned ‘total’ approach.
Sample analyses were performed in batches containing study samples, calibration standards at 10 concentration levels, QC samples at three concentration levels in duplicate and blank samples. The analytical run acceptance criteria for calibration standards and QC samples was that at least 75% of back-calculated concentrations for calibration standards and at least 2/3 of the QC samples (at least 50% at each concentration level) should be within ±20% (±25% at LLOQ) from nominal value.
(§1) Female C.B.−17 SCID mice were purchased from Charles River Laboratories. Mice were 5–8 weeks old at the time of tumour implantation. All xenograft studies were conducted at our Association for the Assessment and Accreditation of Laboratory Animal Care accredited facility in Waltham, MA in accordance with ethical regulations described in the guidelines established by the internal Institutional Animal Care and Use Committee. The dendrimer conjugates were formulated in citrate/phosphate buffer pH 5.0, diluted 1:10 with 5% glucose containing 1% w/v Kolliphor HS15, and AZD4320 was formulated in 30% HP-β-CD and dosed as a weekly intravenous (IV) administration at a volume of 5 ml/kg at the indicated doses. Five million RS4;11, five million SUDHL-4 or five million OCI-LY-10 cells were injected subcutaneously in the right flank of mice in a volume of 0.1 ml. Tumour volumes (measured by caliper), animal body weight, and tumor condition were recorded twice weekly for the duration of the study. The tumour volume was calculated (taking length to be the longest diameter across the tumour and width to be the corresponding perpendicular diameter) using the formula: length (mm) x width (mm)^2/0.52. For efficacy studies, mice were randomized based on tumour volumes using stratified sampling and enrolled into control and treatment groups. Tumour growth inhibition from the start of treatment was quantified by measuring the difference in tumour volume between control and treated groups. Survival analysis was evaluated using Mantel-Cox test. Tumours were also taken for bioanalysis.

RS4;11 xenograft = assay: RS4;11 mouse xenograft efficacy (tumour volume); set-up: key to tumour volume, individual animals: tumour volume in mm³, length × width²/0.52; details: for tumour volume, individual animals: 10 mg/kg; for Tumour volume, Geo Mean: RS4;11 xenograft
Description: as §1

cleaved caspase-3 (CC3) = assay: Cleaved caspase-3 in RS4;11 tumours by MSD ELISA; details: for CC3 PD fold over vehicle, individual tumours: RS4;11, single dose 10 mg/kg or equivalent
Description: Tumours were excised, snap frozen in liquid nitrogen and stored at –80 °C. Tumours were homogenised in lysis buffer containing protease and phosphatase inhibitors, protein concentration determined by Pierce BCA Protein Assay Kit and diluted in lysis buffer to a protein concentration of 0.4 μg/μL. Cleaved caspase-3 (CC3) was measured using the mesoscale cleaved caspase-3 (Asp175) assay whole cell lysate kit according to manufacturer’s instructions. Induction of CC3 was expressed as fold change of treated tumours over vehicle control.

[2] = RS4;11 tumours, 10 mg/kg or equivalent

Question: For `CN(CCO)CCC(CSc1ccccc1)Nc1ccc(S(=O)(=O)NC(=O)c2ccc(N3CCC(C(O)c4ccccc4-c4ccc(Cl)cc4)CC3)cc2)cc1S(=O)(=O)C(F)(F)F` (stereo not drawn) [AZD4320], which “Tumor PK Released AZD4320, individual tumours” value (shortened to “Tumor PK Released AZD4320”) ([1]; RS4;11, single dose 10 mg/kg or equivalent, 0.5 h, 10 mg/kg) is on record?
Answer: The value was 910 ng/g.

Question: What about the “Tumor PK Released AZD4320” value ([1]; RS4;11, single dose 10 mg/kg or equivalent, 1 h, 10 mg/kg) of the same compound?
Answer: The value was 813 ng/g.

Question: And the “Tumor PK Released AZD4320” value ([1]; RS4;11, single dose 10 mg/kg or equivalent, 5 h, 10 mg/kg)?
Answer: The value was 1290 ng/g and 307 ng/g.

Question: And the “Tumor PK Released AZD4320” value ([1]; RS4;11, single dose 10 mg/kg or equivalent, 24 h, 10 mg/kg)?
Answer: Its value is 232 ng/g.

Question: And the “time of maximum (released) AZD4320 concentration in tumour” value [1, 2]?
Answer: The value was no more than 0.5 h.

Question: And the concentration at 0.5 h ([1]; female, C.B-17 SCID, mouse, tumour (RS4;11 xenograft), intravenous, 10 mg/kg, RS4;11, single dose 10 mg/kg or equivalent, 0.5 h, read-out: Tumor PK released AZD4320, individual tumours)?
Answer: Its concentration at 0.5 h is 1360 ng/g.

Question: What about the concentration at 1 h ([1]; female, C.B-17 SCID, mouse, tumour (RS4;11 xenograft), intravenous, 10 mg/kg, RS4;11, single dose 10 mg/kg or equivalent, 1 h, read-out: Tumor PK released AZD4320, individual tumours) of the same compound?
Answer: The concentration at 1 h was 1220 ng/g.

Question: What about the concentration at 24 h ([1]; female, C.B-17 SCID, mouse, tumour (RS4;11 xenograft), intravenous, 10 mg/kg, RS4;11, single dose 10 mg/kg or equivalent, 24 h, read-out: Tumor PK released AZD4320, individual tumours) of the same compound?
Answer: The concentration at 24 h was 359 ng/g.

Question: What about the “tumour volume, individual animals” value (RS4;11 xenograft; Day 38, in mm³ (unit assumed)) of the same compound?
Answer: Its value is 591 and 667 and 633 and 678.

Question: And the “tumour volume, individual animals” value (RS4;11 xenograft; Day 41, in mm³ (unit assumed))?
Answer: The value was 365 and 322 and 378 and 334.

Question: What about the “tumour volume, individual animals” value (RS4;11 xenograft; Day 45, in mm³ (unit assumed)) of the same compound?
Answer: Its value is 218 and 235 and 397 and 259.

Question: What about the “tumour volume, individual animals” value (RS4;11 xenograft; Day 48) of the same compound?
Answer: Its value is 0 (2×) and 160 and 156.

Question: And the “tumour volume, individual animals” value (RS4;11 xenograft; Day 52)?
Answer: The value was 0 (3×) and 144.

Question: What about the “tumour volume, individual animals” value (RS4;11 xenograft; Day 55) of the same compound?
Answer: The value was 0 (3×) and 87.

Question: And the “tumour volume, individual animals” value (RS4;11 xenograft; Day 59, in mm³ (unit assumed))?
Answer: The value was 144 and 155 and 220 and 196.

Question: What about the “tumour volume, individual animals” value (RS4;11 xenograft; Day 63, in mm³ (unit assumed)) of the same compound?
Answer: The value was 388 and 353 and 396 and 530.

Question: And the “tumour volume, individual animals” value (RS4;11 xenograft; Day 66, in mm³ (unit assumed))?
Answer: Its value is 257 and 221 and 387 and 438.

Question: And the “tumour volume, individual animals” value (RS4;11 xenograft; Day 69, in mm³ (unit assumed))?
Answer: Its value is 351 and 316 and 514 and 702.

Question: What about the “tumour volume, individual animals” value (RS4;11 xenograft; Day 73, in mm³ (unit assumed)) of the same compound?
Answer: Its value is 1003 and 568 and 1069 and 1242.

Question: And the “anti-tumour activity” value (RS4;11 xenograft; RS4;11 tumours, IV, 10 mg/kg or equivalent)?
Answer: Its value is “complete regression”.

Question: And the “Tumour volume, Geo Mean” value (RS4;11 xenograft; 10 mg/kg or equivalent, day 29, in mm³ (unit assumed))?
Answer: The value was 450.827.

Question: What about the “Tumour volume, Geo Mean” value (RS4;11 xenograft; 10 mg/kg or equivalent, day 31, in mm³ (unit assumed)) of the same compound?
Answer: Its value is 419.877.

Question: And the “Tumour volume, Geo Mean” value (RS4;11 xenograft; 10 mg/kg or equivalent, day 32, in mm³ (unit assumed))?
Answer: The value was 128.263.

Question: And the “Tumour volume, Geo Mean” value (RS4;11 xenograft; 10 mg/kg or equivalent, day 34, in mm³ (unit assumed))?
Answer: Its value is 1.

Question: And the “Tumour volume, Geo Mean” value (RS4;11 xenograft; 10 mg/kg or equivalent, day 38, in mm³ (unit assumed))?
Answer: The value was 1.

Question: What about the “Tumour volume, Geo Mean” value (RS4;11 xenograft; 10 mg/kg or equivalent, day 41, in mm³ (unit assumed)) of the same compound?
Answer: Its value is 1.

Question: What about the “Tumour volume, Geo Mean” value (RS4;11 xenograft; 10 mg/kg or equivalent, day 45, in mm³ (unit assumed)) of the same compound?
Answer: The value was 1.

Question: And the “Tumour volume, Geo Mean” value (RS4;11 xenograft; 10 mg/kg or equivalent, day 48, in mm³ (unit assumed))?
Answer: Its value is 1.

Question: And the “Tumour volume, Geo Mean” value (RS4;11 xenograft; 10 mg/kg or equivalent, day 56, in mm³ (unit assumed))?
Answer: The value was 4.217.

Question: And the “Tumour volume, Geo Mean” value (RS4;11 xenograft; 10 mg/kg or equivalent, day 59, in mm³ (unit assumed))?
Answer: Its value is 31.9033.

Question: And the “CC3 PD fold over vehicle, individual tumours” value (from here on “CC3 PD fold over vehicle”) (cleaved caspase-3 (CC3); 0.5 h, 10 mg/kg)?
Answer: The value was 36.58 fold over vehicle and 31.76 fold over vehicle.

Question: What about the “CC3 PD fold over vehicle” value (cleaved caspase-3 (CC3); 1 h, 10 mg/kg) of the same compound?
Answer: The value was 36.44 fold over vehicle and 36.82 fold over vehicle.

Question: And the “CC3 PD fold over vehicle” value (cleaved caspase-3 (CC3); 5 h, 10 mg/kg)?
Answer: Its value is 42.22 fold over vehicle and 39.06 fold over vehicle.

Question: And the “CC3 PD fold over vehicle” value (cleaved caspase-3 (CC3); 24 h, 10 mg/kg)?
Answer: Its value is 21.02 fold over vehicle and 47.67 fold over vehicle.

Question: And the “time of onset of CC3 activation” value (cleaved caspase-3 (CC3); [2])?
Answer: Its value is no more than 0.5 h.

Question: What about the “maximal activation of cleaved caspase-3 (CC3)” value (cleaved caspase-3 (CC3); RS4;11 tumours, 10 mg/kg, by 5 h, sustained for 24 h) of the same compound?
Answer: The value was 40 fold.
